Results on 7 compounds are retold here after ChEMBL document CHEMBL3244006, “Synthesis and antinociceptive activity of 7-methoxycodeine” (J Med Chem, 1978).

Each structure is given as a SMILES string. Activity calls are given as the source filed them. The calls are words filed in the database; no cut-off is given here.

Series [1] concerns Mus musculus. Description: Antinociceptive activity in mouse at 100 mg/kg, po by Eddy hot-plate assay. Type of series: functional, organism-based. Further details: dose 100 mg/kg.
The subject of series [2] is Mus musculus. The experiment in a line: Antinociceptive activity in sc dosed mouse by Eddy hot-plate assay. Format: functional.
Series [3] relates to Mus musculus. Description: Antinociceptive activity in po dosed mouse by Eddy hot-plate assay. Type of series: functional.
Series [4] is described as follows: Stability of the compound in acidic media. Type of series: physicochemical.
Series [5] concerns Mus musculus. The experiment in a line: Antinociceptive activity in mouse at 100 mg/kg, sc by Eddy hot-plate assay. Type of series: functional, organism-based. Further details: dose 100 mg/kg.

On to `COc1ccc2c(c1O)[C@]13CCN(C)[C@H](C2)[C@@H]1CC(=O)C(=O)C3`, for which the result in the series on Mus musculus [1] was inactive. For the same compound, it took a dose of 26.7 µmol/kg to reach the 50% effect level with Mus musculus [2] (ED50).
Compound `COC1=C[C@H]2[C@H]3Cc4c(Br)cc(OC)c5c4[C@@]2(CCN3C)[C@@H](O5)C1=O` returned an ED50 in the series on Mus musculus [2] of 40.4 µmol/kg.
Regarding `COC1=C[C@H]2[C@H]3Cc4ccc(OC)c5c4[C@@]2(CCN3C)[C@@H](O5)[C@H]1O`, the ED50 was determined as 30.4 µmol/kg in the series on Mus musculus [3] and 43.1 µmol/kg with Mus musculus [2]. The Stability entry in series [4] is recorded as “Unstable”.
For the compound `CN1CC[C@]23c4c5ccc(O)c4O[C@H]2[C@@H](O)C=C[C@H]3[C@H]1C5`, the values for the 50% effective dose (ED50) with Mus musculus [3] and in the series with Mus musculus [2] were 18.8 µmol/kg and 3.3 µmol/kg, respectively.
Turning to `COC1=C[C@H]2[C@H]3Cc4c(Br)cc(OC)c(O)c4[C@@]2(CCN3C)CC1=O`, in the series on Mus musculus [5], the result was inactive.
Same read-out and setting: under `COC1=C[C@]23CCN(C)[C@H](Cc4c(Br)cc(OC)c(O)c42)[C@@H]3CC1=O` stands “inactive”.
Regarding `COc1ccc2c3c1O[C@H]1[C@@H](O)C=C[C@H]4[C@@H](C2)N(C)CC[C@@]341` [CODEINE PHOSPHATE], the ED50 in the series with Mus musculus [3] turned out to be 34 µmol/kg.
